Data reported in patent US20180346920A1, “Mutations Conferring Acetyl-Coa Carboxylase (ACC) Inhibiting Herbicide Tolerance in Sorghum” (Chromatin, Inc., priority 2017, published 2018).

Legend:
[1] = system: sorghum (Inbred BTX430) calli; experiment: Kill curve experiment on sorghum calli; format: cell-based, Sorghum bicolor; details: 0.2 uM concentration; three week old BTX430 calli
Procedure: Callus production from the isolation of immature embryos (IEs) was accomplished by removing immature seeds from greenhouse grown sorghum (Inbred BTX430) panicles approximately 14 days after anthesis and surface sterilized in ethanol followed by a bleach solution and then washed in sterilized water. Immature embryos were isolated from seeds and transferred to medium with 20 IEs per plate. Cultures were grown for two weeks at (28° C.). All explants which produced somatic embryogenic calli were transferred to growth medium and cultured for an additional 4-6 days at 28° C. Explants were transferred to fresh media every three weeks until the entire callus turned into compact and friable green callus. Three weeks old freshly subcultured calli were used for the experiment
The herbicide active ingredient molecule of ACC herbicide Assure II (Quizalofop-p-ethyl) was used for screening and selection process. For identifying the optimum concentration for screening, a kill curve experiment with concentrations ranging from 0.05 to 1.0 μM of a.i. molecules were tested. Three week old calli were cut into small pieces of 4-5 mm dia and 25 pieces were tested in three replications for each concentration. Concentrations used were: 0.05, 0.1, 0.2, 0.3, 0.4, 0.5 and 1 μM Quizalofop p-ethyl. […]

[2] = system: FOP herbicide resistant calli (FP-1 to FP-19); experiment: Resistant calli tested on higher herbicide concentrations in culture medium; format: cell-based, Sorghum bicolor
Procedure: The herbicide active ingredient molecule of ACC herbicide Assure II (Quizalofop-p-ethyl) was used for screening and selection process. For identifying the optimum concentration for screening, a kill curve experiment with concentrations ranging from 0.05 to 1.0 μM of a.i. molecules were tested. Three week old calli were cut into small pieces of 4-5 mm dia and 25 pieces were tested in three replications for each concentration. Concentrations used were: 0.05, 0.1, 0.2, 0.3, 0.4, 0.5 and 1 μM Quizalofop p-ethyl. As 50% of calli were killed at 0.2 uM concentration, the following selection criteria was followed for entire screening process. Selection process was started with 0.05 um and doubled the concentration for every 3 weeks and the calli surviving on 1.0 uM was considered as resistant calli.
For the chemical mutagenesis, two chemical mutagens Ethyl methanesulfonate (EMS) (0.25 and 0.5%) and Sodium azide (0.5 and 1.0 uM) were used. These mutagens at specified concentration were directly added into the culture media. The calli pieces were first cultured on the media containing the mutagens for 6 and 12 hrs and then transferred to the above mentioned selection procedure. A total of 16 experiments were conducted with varying amount of calli pieces. After 21 to 24 weeks of selection, the surviving calli were considered as herbicide resistant calli. […]

CCOC(=O)[C@@H](C)Oc1ccc(Oc2cnc3cc(Cl)ccc3n2)cc1 [Quizalofop-p-ethyl]
calli killed [1]: 50%
survival of FOP resistant calli ([2]; 100 μM, FP-7, FP-8, FP-9, FP-10, FP-13, FP-15): surviving
growth of FOP herbicide resistant calli on tissue culture medium ([2]; FP-13, 1, 1.5, 2, 5, 10 μM): growing
